Results taken from patent US5925769A, “Acetylenic 1,5-diarylpyrazoles as antiinflammatory agents” (Ortho Pharmaceutical, Corp., priority 1998, dated 1999).

Columns and labels:
CO [1] = biological target: T1, CO (Rattus norvegicus, UniProt Q63921); experiment: Procedure II: CO activity in broken RBL-1 cells (homogenate supernatant); assay type: biochemical; conditions: RBL-1 broken cell supernatant; read-out: Proc. II CO IC50
T1 construct: the supernatant was saved as the source of enzymes; endogenous in cells; host or cells: RBL-1 (rat basophilic leukemia) cells
T1 sequence (Q63921 27-602): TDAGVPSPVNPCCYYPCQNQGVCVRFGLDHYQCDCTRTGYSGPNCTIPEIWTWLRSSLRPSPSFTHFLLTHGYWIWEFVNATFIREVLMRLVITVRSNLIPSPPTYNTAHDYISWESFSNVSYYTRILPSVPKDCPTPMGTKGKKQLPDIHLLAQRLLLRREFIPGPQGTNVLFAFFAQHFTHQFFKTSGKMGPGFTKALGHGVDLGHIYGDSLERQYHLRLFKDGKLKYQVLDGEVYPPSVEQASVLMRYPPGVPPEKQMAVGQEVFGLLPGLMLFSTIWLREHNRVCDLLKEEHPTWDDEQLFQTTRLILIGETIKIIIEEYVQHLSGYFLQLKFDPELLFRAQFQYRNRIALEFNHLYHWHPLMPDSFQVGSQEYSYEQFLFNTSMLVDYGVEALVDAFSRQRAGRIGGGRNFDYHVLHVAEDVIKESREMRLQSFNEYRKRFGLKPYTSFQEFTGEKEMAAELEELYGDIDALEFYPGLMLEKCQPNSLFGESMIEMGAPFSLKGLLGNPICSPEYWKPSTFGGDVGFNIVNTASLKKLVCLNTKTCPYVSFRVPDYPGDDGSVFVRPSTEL
How it was run: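 Supernatant from rat RBL-1 homogenate (9,220×g) was pre-incubated 5 min at 37 °C with 2 mM CaCl2 and compound or 1% DMSO, then with 1-^14C-arachidonic acid for 20 min at 37 °C.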

CO [2] = biological target: T1, CO; experiment: Procedure III: CO (PgD2) in intact RBL-1 cells; assay type: cell-based; conditions: calcium ionophore A 23187, read-out: Proc. III CO IC50
How it was run: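 Intact RBL-1 cells at 1×10^5 cells/mL in HBSS were preincubated with vehicle or drug, pelleted and resuspended, then given 1-^14C-AA. 5-HETE (5-LO) and PgD2 (CO) were separated by TLC after acidification/extraction and quantified by radioimaging; IC50 from regression curve fit.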

CO [3] = experiment: Procedure IV: ex vivo eicosanoid synthesis assay using dogs, CO (TxB2); assay type: in vivo; conditions: dog, oral, 5 mg/kg
Experimental: (§1) Adult beagle or mongrel dogs (10-15 kg) of either sex were fasted overnight prior to the initiation of each experiment. The forelimb was clipped and swabbed with an alcohol prep (70% isopropanol). Blood was drawn by venipuncture into syringes containing lithium heparin (Starstead, Newton, N.C.) immediately prior to administration of compound or vehicle and then at various intervals following dosing. The test compound was administered orally as a suspension in 0.5% methocel. At various times after dosing, blood samples were drawn and placed on an electric rocker platform to assure complete and continuous mixing. White blood cell (wbc) counts were performed using a Sysmex hematology analyzer. This was done in an effort to normalize the number of leukocytes to be stimulated with calcium ionophore. A 1.0 mL aliquot of whole blood was challenged with 50 μL of a 2.6×10^-5 M solution of calcium ionophore A23187 (Calbiochem, La Jolla, Calif.) prepared in DMSO and diluted in HBSS. After a 15 minute incubation at 37° C., the reaction was stopped by placing the samples in an ice bath (4° C.) for 5 minutes and then centrifuging at 11,000×g for 5 minutes to separate the plasma fraction from blood cells. The plasma fraction was removed, diluted in an appropriate buffer, and analyzed for the presence of LTB4 and TxB2 by standard RIA techniques.

5-LO = experiment: Procedure IV: ex vivo eicosanoid synthesis assay using dogs, 5-LO (LTB4); assay type: in vivo; conditions: dog, oral, 5 mg/kg
Experimental: as §1

SMILES: COc1ccc(-n2nc(C#CCN(O)C(N)=O)cc2-c2ccc(C)cc2)cc1 [Cpd 1, N-Hydroxy-N-(1(1-(4-methoxyphenyl)-5-(4-methylphenyl)pyrazol-3-yl)-1-propyn-3-yl)urea]
- IC50 (CO [1]): 0.31 µM
- IC50 (CO [2]): 12.1 µM
- % inh CO (CO [3]; 1 h): 86%
- % inh CO (CO [3]; 2 h): 82%
- % inh CO (CO [3]; 4 h): 76%
- % inh CO (CO [3]; 8 h): 46%
- % inh CO (CO [3]; 24 h): 11%
- % inh 5-LO (5-LO; 1 h): 56%
- % inh 5-LO (5-LO; 2 h): 53%
- % inh 5-LO (5-LO; 4 h): 32%
- % inh 5-LO (5-LO; 8 h): 15%
- % inh 5-LO (5-LO; 24 h): 10%
